PMC3323581, “Membrane Association of the PTEN Tumor Suppressor: Molecular Details of the Protein-Membrane Complex from SPR Binding Studies and Neutron Reflection” (PLoS ONE, 2012)
Where two headings read alike, the source gives them in different places. Values belong to the compound of their own block, whether it stands above or below them.

Tests used:
Assay in all cases: SPR equilibrium binding to sparsely-tethered bilayer (stBLM)
wt PTEN [1] = target: T1, wt PTEN (Homo sapiens, UniProt P60484); conditions: for Kd: read-out: Kd (μM) / Component a
T1 construct: full-length, six-histidine tag at the C-terminus, expressed in Escherichia coli BL21 (DE3)
Excerpt: (§1) SPR equilibrium binding to sparsely-tethered bilayer (stBLM) on wt PTEN

wt PTEN [2] = target: T2, wt PTEN (Homo sapiens, UniProt P60484, C124S)
T2 construct: full-length, six-histidine tag at the C-terminus, expressed in Escherichia coli BL21 (DE3)
Excerpt: as §1

wt PTEN [3] = target: T3, wt PTEN (Homo sapiens, UniProt P60484, H93R); conditions: DOPC:PI(4,5)P2 97.8:2.2 bilayer, pH 7.0, room temperature
T3 construct: full-length, six-histidine tag at the C-terminus, expressed in Escherichia coli BL21 (DE3)
Excerpt: as §1

truncated PTEN = target: T4, truncated PTEN (Homo sapiens, UniProt P60484, DEL286-309); conditions: DOPC:PI(4,5)P2 97.8:2.2 bilayer, pH 7.0, room temperature
T4 construct: crystallization construct: residues 1-6, loop 286-309 and C-terminal tail 354-403 deleted; plasmid from N. R. Leslie; expressed in E. coli, His-tag purified
Excerpt: SPR equilibrium binding to sparsely-tethered bilayer (stBLM) on truncated PTEN

- Kd (wt PTEN [1]): 1.9 ± 0.3 µM
Compound: CCCCCCCCCCCCCCCC(=O)OC[C@H](COP(=O)(O)O[C@@H]1[C@H](O)[C@H](O)[C@@H](OP(=O)(O)O)[C@H](OP(=O)(O)O)[C@H]1O)OC(=O)CCCCCCCCCCCCCCC [DPPI(4,5)P2]

- Kd (wt PTEN [2]): 120 ± 30 nM
- Kd (μM) / Component a (wt PTEN [1]; DOPC:PI(3,4,5)P3 97.9:2.1 bilayer, pH 7.0, room temperature, unreliable (active enzyme likely converts the lipid during the measurement)): 2.4 ± 0.2 µM
Compound: CCCCCCCCCCCCCCCC(=O)OC[C@H](COP(=O)(O)O[C@H]1[C@H](O)[C@@H](OP(=O)(O)O)[C@H](OP(=O)(O)O)[C@@H](OP(=O)(O)O)[C@H]1O)OC(=O)CCCCCCCCCCCCCCC [PI(3,4,5)P3]

- Kd (wt PTEN [2]; DOPC:PI(4,5)P2 97.8:2.2 bilayer, pH 7.0, room temperature): 320 ± 30 nM
- Kd (wt PTEN [1]; DOPC:PI(4,5)P2 97.8:2.2 bilayer (same Kd at 0.7 and 3.7 mol%), 100 mM NaCl, 10 mM HEPES, 1 mM EDTA, pH 7.0, room temperature, Kd as protein concentration at half saturation): 0.4 ± 0.1 µM
- Kd (wt PTEN [3]): 1300 ± 200 nM
- Kd (truncated PTEN): 770 ± 70 nM
Compound: PI(4,5)P2
